Measured values from patent US12171763B2, “Methods and compositions comprising a KRASG12C inhibitor and a PD-L1 binding antagonist for treating lung cancer” (Genentech, Inc., priority 2020, dated 2024).
Counter-ions that a name gives are not always drawn.

Legend:
[1] = Risks associated with administration of Compound 1; details: in vivo
[2] = tested on: KRAS^G12C-positive lung tumors; assay: Nonclinical xenograft models of KRAS G12C-positive lung tumors; type: in vivo
[3] = tested on: KRAS^G12C-positive over KRAS^G12C-negative cancer cell lines; assay: Growth inhibition of KRAS G12C-positive versus KRAS G12C-negative cancer cell lines; type: cell-based
[4] = tested on: KRAS^G12C-positive cancer cell lines; assay: Mechanism of action studies in KRAS G12C-positive cancer cell lines; type: cell-based
[5] = tested on: CT26.KRAS12C-Clone #12:B2G9 Syngeneic Colorectal (CRC) Tumors; assay: Anti-tumor efficacy in CT26.KRAS12C-Clone #12:B2G9 syngeneic colorectal (CRC) tumor model; type: in vivo, Balb/c mice
Experimental: The combination of the adipate salt of Compound 1 with anti-PD-L1 monoclonal antibody (mAb) was assessed in the CRISPR-engineered CT26.KRAS12C-Clone #12:B2G9 mouse colorectal (CRC) syngeneic tumor model.
Test Agents. The adipate salt of Compound 1 was in a solution at a concentration of 7.5 mg/mL in 0.5% (w/v) methylcellulose. Anti-PD-L1 mAbs (Mu IgG1 anti-PD-L1 (6E11); hereafter referred to as anti-PD-L1) was in a solution in Histidine Buffer #8 ([…] Histidine Acetate, […] Sucrose, 0.02% Tween 20™, pH 5.5). The oral-dosed vehicle control was 0.5% (w/v) methylcellulose. Test agents were stored in a refrigerator set to maintain a temperature range of 4° C.-7° C. All treatments and vehicle control dosing solutions were prepared once a week for three weeks.
Female Balb/c mice that were 9-10 weeks old were obtained from Charles River Laboratory (Hollister, CA) weighing an average of 22 g. Only animals that appeared to be healthy and that were free of obvious abnormalities were used for the study. Mus musculus colon carcinoma CT26 cells were obtained from the American Type Culture Collection (Rockville, MD). CT26.KRAS12C-Clone #12:B2G9 is derived from CRISPR knock-in of G12C in CT26 cells. Cells were cultured in vitro, harvested in log-phase growth, and resuspended in Hank's Balanced Salt Solution (HBSS) containing Matrigel (BD Biosciences; San Jose, CA) at a 1:1 ratio. The cells were then implanted subcutaneously in the right lateral thorax of 70 Balb/c mice. Each mouse was injected with 0.1×10^6 cells in a volume of 100 μL. Tumors were monitored until they reached a mean tumor volume of 159-228 mm^3. Mice were distributed into six groups based on tumor volumes with n=8 mice per group. The mean tumor volume across all six groups was 198 mm^3 at the initiation of dosing.
[…] The MC vehicle and adipate salt of Compound 1 were administered on QD orally (PO) by gavage for 21 days in a volume of 100 μL. The isotope control mAbs and anti-PD-L1 mAbs were administered intravenously (IV) at 10 mg/kg for the first dose, and then dosed intraperitoneally (IP) at 5 mg/kg for subsequent doses on a twice weekly (BIW) schedule.
Tumor sizes and mouse body weights were recorded twice weekly over the course of the study. […]
Dose Preparation and Tumor and Body Weight Measurement. All concentrations were calculated based on a mean body weight of 25 g for the […] mouse strain used in this study. Tumor volumes were measured in two dimensions (length and width) using Ultra Cal-IV calipers (model 54-10-111; Fred V. Fowler Co.; Newton, MA) and analyzed using Excel, version 14.2.5 (Microsoft Corporation; Redmond WA). The tumor volume was calculated with the following formula: Tumor size(mm^3)=(longer measurement×shorter measurement^2)×0.5 […]

NSCLC = details: patients in clinical studies, cited from earlier work

SMILES: C=CC(=O)N1CCN(c2nc(OC[C@@H]3CCCN3C)nc3c(F)c(-c4nc(N)cc(C)c4C(F)(F)F)c(Cl)cc23)[C@@H](C)C1 (atropisomer, axis not shown) [Compound 1, 1-((S)-4-((R)-7-(6-amino-4-methyl-3-(trifluoromethyl)pyridin-2-yl)-6-chloro-8-fluoro-2-(((S)-1-methylpyrrolidin-2-yl)methoxy)quinazolin-4-yl)-3-methylpiperazin-1-yl)prop-2-en-1-one]
- risks associated with administration [1]: diarrhea, nausea, vomiting, oral mucosal irritation, minimal to mild transaminase elevation, and phototoxicity
- single-agent activity on tumor growth [2]: inhibits tumor growth
- selectivity in growth inhibition [3]: over 20,000 fold
- apoptosis induction [4]: apoptosis induction is observed
- downstream MAPK pathway components (pERK, pS6) and KRAS target genes (DUSP6, SPRY4) [4]: inhibited

SMILES: C=CC(=O)N1CCN(c2nc(OC[C@@H]3CCCN3C)nc3c(F)c(-c4nc(N)cc(C)c4C(F)(F)F)c(Cl)cc23)[C@@H](C)C1 (atropisomer, axis not shown) [adipate salt Compound 1, 1-((S)-4-((R)-7-(6-amino-4-methyl-3-(trifluoromethyl)pyridin-2-yl)-6-chloro-8-fluoro-2-(((S)-1-methylpyrrolidin-2-yl)methoxy)quinazolin-4-yl)-3-methylpiperazin-1-yl)prop-2-en-1-one]
- partial responses (PRs) ([5]; fraction of mice, Compound 1 adipate 30 mg/kg PO QD, anti-PD-L1 10/5 mg/kg BIW): ⅜
- CR (complete response) ([5]; number of mice of 8, CR = 100% decrease in tumor volume, Compound 1 adipate 30 mg/kg, anti-PD-L1 10/5 mg/kg): 0
- PR (partial response) ([5]; number of mice of 8, PR = >50% decrease from initial tumor volume, Compound 1 adipate 30 mg/kg, anti-PD-L1 10/5 mg/kg): 3
- % TGI (estimated) ([5]; tumor growth inhibition based on AUC, relative to vehicle, Compound 1 adipate 30 mg/kg PO QD, anti-PD-L1 10 mg/kg IV first dose then 5 mg/kg IP BIW): 123%

SMILES: C=CC(=O)N1CCN(c2nc(=O)n(-c3c(C)ccnc3C(C)C)c3nc(-c4c(O)cccc4F)c(F)cc23)[C@@H](C)C1 [AMG 510, sotorasib]
- treatment-related adverse events (NSCLC; overall): 56.6 % of patients
- Grade 3 events occurring in more than one patient (NSCLC): ALT increase, diarrhea, anemia, AST increase, and alkaline phosphatase increase
- treatment-related Grade 3 or 4 event (NSCLC): 11.6 % of patients
- treatment-related serious adverse event (NSCLC): 1.6 % of patients
